Reference: patent US20190071416A1, “COMPOUNDS FOR TREATMENT OF CANCER AND EPIGENETICS” (Agency For Science, Technology and Research, priority 2015, published 2019)

What follows are compounds tested against T1, SMYD3 (Homo sapiens, UniProt Q9H7B4) (assay: SMYD3 biochemical assay (MTase-Glo, MAP3K2 peptide substrate)). Details: Table 3; MTase assay, MAP3K2 peptide substrate; read-out: IC50.
T1 sequence (Q9H7B4 1-428): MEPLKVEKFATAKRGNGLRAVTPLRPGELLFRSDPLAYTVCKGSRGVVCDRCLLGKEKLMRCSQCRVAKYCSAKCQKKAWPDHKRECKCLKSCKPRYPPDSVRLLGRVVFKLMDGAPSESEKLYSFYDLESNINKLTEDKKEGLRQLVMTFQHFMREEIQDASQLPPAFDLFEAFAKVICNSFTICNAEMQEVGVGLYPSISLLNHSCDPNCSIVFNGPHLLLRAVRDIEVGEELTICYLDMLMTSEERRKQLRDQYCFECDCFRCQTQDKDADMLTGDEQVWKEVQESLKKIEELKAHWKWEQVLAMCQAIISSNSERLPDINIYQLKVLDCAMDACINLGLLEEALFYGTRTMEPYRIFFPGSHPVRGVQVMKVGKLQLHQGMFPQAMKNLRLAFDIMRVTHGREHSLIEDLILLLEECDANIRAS
Summary of the method: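 Methylation of MAP3K2 peptide (10 µM final) with SAM (1.0 µM final) by SMYD3, 30 min at room temperature. SAH formed was enzymatically converted to ATP and detected as luminescence with MTase-Glo reagents; IC50 by non-linear regression.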

IC50 [nM]	SMILES
3700	CCCOC(=O)N1CCN(C(=O)c2ccc3c(Cl)cc(-c4ccc(C(F)(F)F)cc4)nc3c2)CC1 [B066, Propyl 4-(4-chloro-2-(4-(trifluoromethyl)phenyl)quinoline-7-carbonyl)piperazine-1-carboxylate]
2100	CCCOC(=O)N1CCN(C(=O)c2ccc3c(Cl)cc(-c4cccc(CC)c4)nc3c2)CC1 [B067, Propyl 4-(4-chloro-2-(3-ethylphenyl)quinoline-7-carbonyl)piperazine-1-carboxylate]
1300	CCCOC(=O)N1CCN(C(=O)c2ccc3c(Cl)cc(-c4ccc(F)c(C)c4)nc3c2)CC1 [B068, Propyl 4-(4-chloro-2-(4-fluoro-3-methylphenyl)quinoline-7-carbonyl)piperazine-1-carboxylate]
240	CCCOC(=O)N1CCN(C(=O)c2ccc3c(Cl)cc(-c4cccc(N5CCOCC5)c4)nc3c2)C[C@H]1C [B069, Propyl (R)-4-(4-chloro-2-(3-morphohnophenyl)quinoline-7-carbonyl)-2-methylpiperazine-1-carboxylate]
2100	C#Cc1cccc(-c2cc(Cl)c3ccc(C(=O)N4CCN(C(=O)OCCC)CC4)cc3n2)c1 [B070, Propyl 4-(4-chloro-2-(3-ethynylphenyl)quinoline-7-carbonyl)piperazine-1-carboxylate]
1300	C#Cc1cccc(-c2cc(Cl)c3ccc(C(=O)N4CCN(C(=O)OCCC)[C@H](C)C4)cc3n2)c1 [B071, Propyl (R)-4-(4-chloro-2-(3-ethynylphenyl)quinoline-7-carbonyl)-2-methylpiperazine-1-carboxylate]
1400	CCCOC(=O)N1CCN(C(=O)c2ccc3c(Cl)cc(-c4ccc([N+](=O)[O-])cc4)nc3c2)CC1 [B072, Propyl 4-(4-chloro-2-(4-nitrophenyl)quinoline-7-carbonyl)piperazine-1-carboxylate]
90	CCCOC(=O)N1CCN(C(=O)c2ccc3c(Cl)cc(-c4ccc(N)cc4)nc3c2)CC1 [B073, Propyl 4-(2-(4-aminophenyl)-4-chloroquinoline-7-carbonyl)piperazine-1-carboxylate]
130	CCCOC(=O)N1CCN(C(=O)c2ccc3c(Cl)cc(-c4ccc(N)cc4)nc3c2)C[C@H]1C [B074, Propyl (R)-4-(2-(4-aminophenyl)-4-chloroquinoline-7-carbonyl)-2-methylpiperazine-1-carboxylate]
440	CCCOC(=O)N1CCN(C(=O)c2ccc3c(Cl)cc(-c4ccc(N5CCCC5)cc4)nc3c2)C[C@H]1C [B075, Propyl (R)-4-(4-chloro-2-(4-(pyrrolidin-1-yl)phenyl)quinoline-7-carbonyl)-2-methylpiperazine-1-carboxylate]
190	CCCOC(=O)N1CCN(C(=O)c2ccc3c(Cl)cc(-c4ccc(N(C)C)cc4)nc3c2)[C@@H](C)C1 [B076, Propyl (S)-4-(4-chloro-2-(4-(dimethylamino)phenyl)quinoline-7-carbonyl)-3-methylpiperazine-1-carboxylate]
120	CCCOC(=O)N1CCN(C(=O)c2ccc3c(Cl)cc(-c4cccc(N)c4)nc3c2)CC1 [B077, Propyl 4-(2-(3-aminophenyl)-4-chloroquinoline-7-carbonyl)piperazine-1-carboxylate]
130	CCCOC(=O)N1CCN(C(=O)c2ccc3c(Cl)cc(-c4cccc(N)c4)nc3c2)C[C@H]1C [B078, Propyl (R)-4-(2-(3-aminophenyl)-4-chloroquinoline-7-carbonyl)-2-methylpiperazine-1-carboxylate]
60	CCCOC(=O)N1CCN(C(=O)c2ccc3c(Cl)cc(C4CC4)nc3c2)C[C@H]1C [B079, Propyl (R)-4-(4-chloro-2-cyclopropylquinoline-7-carbonyl)-2-methylpiperazine-1-carboxylate]
10000	CCCOC(=O)N1CCN(C(=O)c2ccc3c(Cl)cc(-c4nccs4)nc3c2)C[C@H]1C [B080, Propyl (R)-4-(4-chloro-2-(thiazol-2-yl)quinoline-7-carbonyl)-2-methylpiperazine-1-carboxylate]
